{"source": "paper PMC4917279", "about": "(Journal of Medicinal Chemistry, 2016)", "type_in_all_cases": "binding", "conditions_in_all_cases": "read-out: %Ctrl @ 1000 nM", "key": {"EGFR(G719C)": {"molecular_target": "T1, EGFR(G719C) (Homo sapiens, UniProt P00533, G719C)", "T1 construct": "purchased DiscoveRx KINOMEscan", "test": "KINOMEscan"}, "ADCK4": {"molecular_target": "T2, ADCK4 (Homo sapiens, UniProt Q96D53)", "T2 construct": "purchased DiscoveRx KINOMEscan", "test": "KINOMEscan"}, "LIMK1": {"molecular_target": "T3, LIMK1 (Homo sapiens, UniProt P53667)", "T3 construct": "purchased DiscoveRx KINOMEscan", "test": "KINOMEscan"}, "PLK1": {"molecular_target": "T4, PLK1 (Homo sapiens, UniProt P53350)", "T4 construct": "purchased DiscoveRx KINOMEscan", "test": "KINOMEscan"}, "PKNB(M.tuberculosis)": {"molecular_target": "T5, PKNB(M.tuberculosis) (Mycobacterium tuberculosis, UniProt P9WI81)", "T5 construct": "purchased DiscoveRx KINOMEscan", "test": "biochemical"}, "MYO3B": {"molecular_target": "T6, MYO3B (Homo sapiens, UniProt Q8WXR4)", "T6 construct": "purchased DiscoveRx KINOMEscan", "test": "KINOMEscan"}, "TTK": {"molecular_target": "T7, TTK (Homo sapiens, UniProt P33981)", "T7 construct": "purchased DiscoveRx KINOMEscan", "test": "KINOMEscan"}, "PRKG2": {"molecular_target": "T8, PRKG2 (Homo sapiens, UniProt Q13237)", "T8 construct": "purchased DiscoveRx KINOMEscan", "test": "KINOMEscan"}, "PRKD3": {"molecular_target": "T9, PRKD3 (Homo sapiens, UniProt O94806)", "T9 construct": "purchased DiscoveRx KINOMEscan", "test": "KINOMEscan"}, "KIT(D816H)": {"molecular_target": "T10, KIT(D816H) (Homo sapiens, UniProt P10721, D816H)", "T10 construct": "purchased DiscoveRx KINOMEscan", "T10 sequence (P10721 26-976 D816H)": "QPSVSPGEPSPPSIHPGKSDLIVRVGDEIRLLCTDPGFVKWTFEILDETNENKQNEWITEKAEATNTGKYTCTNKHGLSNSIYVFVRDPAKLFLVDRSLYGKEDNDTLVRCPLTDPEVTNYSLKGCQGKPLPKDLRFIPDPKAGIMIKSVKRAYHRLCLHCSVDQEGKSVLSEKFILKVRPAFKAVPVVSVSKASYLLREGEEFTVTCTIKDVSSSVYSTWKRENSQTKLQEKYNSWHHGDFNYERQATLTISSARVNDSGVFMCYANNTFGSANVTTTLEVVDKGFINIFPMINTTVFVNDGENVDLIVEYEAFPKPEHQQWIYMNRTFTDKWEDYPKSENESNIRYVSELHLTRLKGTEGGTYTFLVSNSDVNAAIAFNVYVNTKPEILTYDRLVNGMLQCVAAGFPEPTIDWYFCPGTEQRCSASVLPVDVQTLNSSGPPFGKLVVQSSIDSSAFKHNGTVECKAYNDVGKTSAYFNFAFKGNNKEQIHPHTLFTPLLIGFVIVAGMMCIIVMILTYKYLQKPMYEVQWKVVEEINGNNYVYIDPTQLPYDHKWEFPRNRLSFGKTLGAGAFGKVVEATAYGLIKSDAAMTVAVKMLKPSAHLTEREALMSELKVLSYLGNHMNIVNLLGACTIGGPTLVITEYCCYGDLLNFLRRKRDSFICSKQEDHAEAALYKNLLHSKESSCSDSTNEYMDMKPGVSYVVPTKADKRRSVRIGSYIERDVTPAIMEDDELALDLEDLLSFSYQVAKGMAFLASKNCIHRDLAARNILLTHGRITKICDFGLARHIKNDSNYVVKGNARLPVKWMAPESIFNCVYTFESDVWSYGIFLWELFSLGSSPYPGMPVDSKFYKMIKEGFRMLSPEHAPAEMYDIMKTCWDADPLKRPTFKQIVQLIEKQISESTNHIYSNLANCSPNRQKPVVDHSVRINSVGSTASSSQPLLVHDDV", "test": "KINOMEscan"}, "TNIK": {"molecular_target": "T11, TNIK (Homo sapiens, UniProt Q9UKE5)", "T11 construct": "purchased DiscoveRx KINOMEscan", "test": "KINOMEscan"}, "PFPK5(P.falciparum)": {"molecular_target": "T12, PFPK5(P.falciparum) (Plasmodium falciparum, UniProt P61075)", "T12 construct": "purchased DiscoveRx KINOMEscan", "test": "KINOMEscan"}, "PFTK1": {"molecular_target": "T13, PFTK1 (Homo sapiens, UniProt O94921)", "T13 construct": "purchased DiscoveRx KINOMEscan", "test": "KINOMEscan"}, "BTK": {"molecular_target": "T14, BTK (Homo sapiens, UniProt Q06187)", "T14 construct": "purchased DiscoveRx KINOMEscan", "test": "KINOMEscan"}, "CAMK2D": {"molecular_target": "T15, CAMK2D (Homo sapiens, UniProt Q13557)", "T15 construct": "purchased DiscoveRx KINOMEscan", "test": "KINOMEscan"}, "BMPR2": {"molecular_target": "T16, BMPR2 (Homo sapiens, UniProt Q13873)", "T16 construct": "purchased DiscoveRx KINOMEscan", "T16 sequence (Q13873 27-1038)": "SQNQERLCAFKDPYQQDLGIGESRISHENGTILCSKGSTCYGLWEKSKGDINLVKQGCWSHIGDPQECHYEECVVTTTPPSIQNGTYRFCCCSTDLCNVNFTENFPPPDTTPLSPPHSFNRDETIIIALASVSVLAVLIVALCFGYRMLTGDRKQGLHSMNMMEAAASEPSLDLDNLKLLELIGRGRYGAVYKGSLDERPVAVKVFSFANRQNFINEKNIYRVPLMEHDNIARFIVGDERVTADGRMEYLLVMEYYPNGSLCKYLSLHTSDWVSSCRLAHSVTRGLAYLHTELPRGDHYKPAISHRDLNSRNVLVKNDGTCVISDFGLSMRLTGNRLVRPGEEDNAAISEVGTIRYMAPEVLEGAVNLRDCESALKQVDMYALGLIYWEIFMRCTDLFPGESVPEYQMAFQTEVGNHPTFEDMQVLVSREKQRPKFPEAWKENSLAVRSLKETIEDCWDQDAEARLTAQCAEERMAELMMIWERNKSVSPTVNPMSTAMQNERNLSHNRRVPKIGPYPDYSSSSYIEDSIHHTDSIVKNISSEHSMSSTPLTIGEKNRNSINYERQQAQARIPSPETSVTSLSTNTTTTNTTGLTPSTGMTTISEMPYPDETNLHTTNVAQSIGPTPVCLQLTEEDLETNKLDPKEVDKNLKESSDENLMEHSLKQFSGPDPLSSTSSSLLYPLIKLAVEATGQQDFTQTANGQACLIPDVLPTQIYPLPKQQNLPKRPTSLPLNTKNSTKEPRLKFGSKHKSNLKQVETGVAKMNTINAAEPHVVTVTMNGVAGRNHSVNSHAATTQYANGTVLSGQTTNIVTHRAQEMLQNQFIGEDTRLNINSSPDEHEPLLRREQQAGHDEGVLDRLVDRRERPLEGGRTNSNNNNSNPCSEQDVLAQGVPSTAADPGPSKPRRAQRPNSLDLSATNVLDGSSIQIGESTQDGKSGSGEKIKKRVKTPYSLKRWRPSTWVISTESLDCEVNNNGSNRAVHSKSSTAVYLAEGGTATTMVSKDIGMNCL", "test": "KINOMEscan"}, "PAK7": {"molecular_target": "T17, PAK7 (Homo sapiens, UniProt Q9P286)", "T17 construct": "purchased DiscoveRx KINOMEscan", "test": "KINOMEscan"}, "DRAK1": {"molecular_target": "T18, DRAK1 (Homo sapiens, UniProt Q9UEE5)", "T18 construct": "purchased DiscoveRx KINOMEscan", "test": "KINOMEscan"}, "HUNK": {"molecular_target": "T19, HUNK (Homo sapiens, UniProt P57058)", "T19 construct": "purchased DiscoveRx KINOMEscan", "test": "KINOMEscan"}, "EGFR(T790M)": {"molecular_target": "T20, EGFR(T790M) (Homo sapiens, UniProt P00533, T790M)", "T20 construct": "purchased DiscoveRx KINOMEscan", "T20 sequence (P00533 25-1210 T790M)": "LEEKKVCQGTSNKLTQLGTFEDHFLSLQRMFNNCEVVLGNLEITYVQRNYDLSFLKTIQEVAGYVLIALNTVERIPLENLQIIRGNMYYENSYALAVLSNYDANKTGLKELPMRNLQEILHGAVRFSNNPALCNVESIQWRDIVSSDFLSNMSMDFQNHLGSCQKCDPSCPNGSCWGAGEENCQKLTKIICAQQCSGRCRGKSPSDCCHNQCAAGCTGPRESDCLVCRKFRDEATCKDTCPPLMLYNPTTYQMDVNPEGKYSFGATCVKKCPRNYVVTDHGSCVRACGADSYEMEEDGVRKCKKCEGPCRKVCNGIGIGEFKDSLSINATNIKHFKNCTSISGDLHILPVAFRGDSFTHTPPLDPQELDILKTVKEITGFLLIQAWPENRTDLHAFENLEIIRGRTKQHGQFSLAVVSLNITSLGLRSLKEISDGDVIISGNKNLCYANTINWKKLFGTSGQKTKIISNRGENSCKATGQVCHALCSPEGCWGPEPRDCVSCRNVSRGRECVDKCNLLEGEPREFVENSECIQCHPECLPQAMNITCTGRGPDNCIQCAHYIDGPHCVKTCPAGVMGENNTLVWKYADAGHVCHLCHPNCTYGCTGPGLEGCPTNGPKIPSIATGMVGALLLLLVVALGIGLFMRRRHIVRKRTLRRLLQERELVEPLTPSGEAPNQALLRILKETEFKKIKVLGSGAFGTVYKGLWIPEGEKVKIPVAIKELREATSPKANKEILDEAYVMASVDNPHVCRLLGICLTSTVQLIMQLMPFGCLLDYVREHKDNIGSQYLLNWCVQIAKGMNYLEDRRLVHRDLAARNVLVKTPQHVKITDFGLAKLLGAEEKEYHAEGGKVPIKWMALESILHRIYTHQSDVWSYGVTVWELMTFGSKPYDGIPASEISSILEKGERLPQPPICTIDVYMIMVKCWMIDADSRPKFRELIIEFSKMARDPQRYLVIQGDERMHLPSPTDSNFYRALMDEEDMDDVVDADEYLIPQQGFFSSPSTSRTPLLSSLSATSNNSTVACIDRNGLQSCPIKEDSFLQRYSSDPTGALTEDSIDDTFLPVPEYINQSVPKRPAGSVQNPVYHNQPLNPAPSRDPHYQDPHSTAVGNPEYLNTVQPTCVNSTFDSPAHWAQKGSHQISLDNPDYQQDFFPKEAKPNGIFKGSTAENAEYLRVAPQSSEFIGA", "test": "KINOMEscan"}, "KIT(V559D)": {"molecular_target": "T21, KIT(V559D) (Homo sapiens, UniProt P10721, V559D)", "T21 construct": "purchased DiscoveRx KINOMEscan", "T21 sequence (P10721 26-976 V559D)": "as the sequence (P10721 26-976 D816H) above, with V534D, H791D counted along it", "test": "KINOMEscan"}, "[1]": {"molecular_target": "T22, ABL1(F317I)-phosphorylated (Homo sapiens, UniProt P00519, F317I)", "T22 construct": "purchased DiscoveRx (KINOMEscan service)", "test": "KINOMEscan"}, "BUB1": {"molecular_target": "T23, BUB1 (Homo sapiens, UniProt O43683)", "T23 construct": "purchased DiscoveRx KINOMEscan", "test": "KINOMEscan"}, "AKT1": {"molecular_target": "T24, AKT1 (Homo sapiens, UniProt P31749)", "T24 construct": "purchased DiscoveRx KINOMEscan", "test": "KINOMEscan"}, "MARK3": {"molecular_target": "T25, MARK3 (Homo sapiens, UniProt P27448)", "T25 construct": "purchased DiscoveRx KINOMEscan", "test": "KINOMEscan"}, "RET(M918T)": {"molecular_target": "T26, RET(M918T) (Homo sapiens, UniProt P07949, M918T)", "T26 construct": "purchased DiscoveRx KINOMEscan", "test": "KINOMEscan"}, "PIK3CA(H1047Y)": {"molecular_target": "T27, PIK3CA(H1047Y) (Homo sapiens, UniProt P42336, H1047Y)", "T27 construct": "purchased DiscoveRx KINOMEscan", "test": "KINOMEscan"}, "NEK5": {"molecular_target": "T28, NEK5 (Homo sapiens, UniProt Q6P3R8)", "T28 construct": "purchased DiscoveRx KINOMEscan", "test": "KINOMEscan"}, "DLK": {"molecular_target": "T29, DLK (Homo sapiens, UniProt Q12852)", "T29 construct": "purchased DiscoveRx KINOMEscan", "test": "KINOMEscan"}, "ACVR1B": {"molecular_target": "T30, ACVR1B (Homo sapiens, UniProt P36896)", "T30 construct": "purchased DiscoveRx", "T30 sequence (P36896 24-505)": "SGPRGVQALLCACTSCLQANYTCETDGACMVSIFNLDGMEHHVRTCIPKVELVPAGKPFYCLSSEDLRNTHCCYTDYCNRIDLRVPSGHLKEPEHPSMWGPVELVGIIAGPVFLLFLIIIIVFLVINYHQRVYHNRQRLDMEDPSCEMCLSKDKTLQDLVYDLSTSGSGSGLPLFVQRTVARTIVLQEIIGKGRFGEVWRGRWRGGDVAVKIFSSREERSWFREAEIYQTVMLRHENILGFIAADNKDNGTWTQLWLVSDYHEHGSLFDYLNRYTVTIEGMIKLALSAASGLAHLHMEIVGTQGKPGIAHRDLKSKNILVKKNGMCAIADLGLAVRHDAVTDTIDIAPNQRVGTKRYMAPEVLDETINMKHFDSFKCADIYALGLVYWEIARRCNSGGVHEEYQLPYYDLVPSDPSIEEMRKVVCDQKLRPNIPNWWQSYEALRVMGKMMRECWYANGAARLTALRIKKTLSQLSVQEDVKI", "test": "KINOMEscan"}, "EPHA3": {"molecular_target": "T31, EPHA3 (Homo sapiens, UniProt P29320)", "T31 construct": "purchased DiscoveRx KINOMEscan", "T31 sequence (P29320 21-983)": "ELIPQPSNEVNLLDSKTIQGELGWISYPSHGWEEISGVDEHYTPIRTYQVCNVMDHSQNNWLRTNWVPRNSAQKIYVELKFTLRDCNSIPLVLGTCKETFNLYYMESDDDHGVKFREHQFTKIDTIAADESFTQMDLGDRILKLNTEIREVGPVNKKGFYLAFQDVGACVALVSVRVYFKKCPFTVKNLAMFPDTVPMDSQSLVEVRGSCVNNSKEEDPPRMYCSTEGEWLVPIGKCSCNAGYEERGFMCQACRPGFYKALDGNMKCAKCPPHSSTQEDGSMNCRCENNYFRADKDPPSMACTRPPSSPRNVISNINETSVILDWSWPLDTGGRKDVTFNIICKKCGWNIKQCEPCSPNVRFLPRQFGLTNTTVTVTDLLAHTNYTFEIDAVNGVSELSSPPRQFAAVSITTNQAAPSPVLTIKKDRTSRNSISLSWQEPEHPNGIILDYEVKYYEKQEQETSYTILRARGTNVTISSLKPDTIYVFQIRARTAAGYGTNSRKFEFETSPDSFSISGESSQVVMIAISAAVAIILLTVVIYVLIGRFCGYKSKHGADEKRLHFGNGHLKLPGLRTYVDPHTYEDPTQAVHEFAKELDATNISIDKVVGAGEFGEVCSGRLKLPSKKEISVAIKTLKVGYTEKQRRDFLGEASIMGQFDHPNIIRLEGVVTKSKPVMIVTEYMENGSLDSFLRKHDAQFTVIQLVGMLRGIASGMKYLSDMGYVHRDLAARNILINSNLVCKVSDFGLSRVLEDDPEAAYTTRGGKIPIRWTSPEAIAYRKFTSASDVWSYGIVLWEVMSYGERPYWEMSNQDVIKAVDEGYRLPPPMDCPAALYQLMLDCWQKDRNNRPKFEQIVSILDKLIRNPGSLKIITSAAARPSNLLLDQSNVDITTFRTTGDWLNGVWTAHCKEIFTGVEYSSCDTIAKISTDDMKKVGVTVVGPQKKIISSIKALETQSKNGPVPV", "test": "KINOMEscan"}, "TESK1": {"molecular_target": "T32, TESK1 (Homo sapiens, UniProt Q15569)", "T32 construct": "purchased DiscoveRx KINOMEscan", "test": "KINOMEscan"}, "DCAMKL2": {"molecular_target": "T33, DCAMKL2 (Homo sapiens, UniProt Q8N568)", "T33 construct": "purchased DiscoveRx KINOMEscan", "test": "KINOMEscan"}, "PIK3CA(H1047L)": {"molecular_target": "T34, PIK3CA(H1047L) (Homo sapiens, UniProt P42336, H1047L)", "T34 construct": "purchased DiscoveRx KINOMEscan", "test": "KINOMEscan"}, "KIT(V559D,T670I)": {"molecular_target": "T35, KIT(V559D,T670I) (Homo sapiens, UniProt P10721, T670I/V559D)", "T35 construct": "purchased DiscoveRx KINOMEscan", "T35 sequence (P10721 26-976 V559D/T670I)": "as the sequence (P10721 26-976 D816H) above, with V534D, T645I, H791D counted along it", "test": "KINOMEscan"}, "PRKCH": {"molecular_target": "T36, PRKCH (Homo sapiens, UniProt P24723)", "T36 construct": "purchased DiscoveRx KINOMEscan", "test": "KINOMEscan"}, "[2]": {"molecular_target": "T37, RSK3(Kin.Dom.1-N-terminal) (Homo sapiens, UniProt Q15349)", "T37 construct": "RSK3(Kin.Dom.1-N-terminal); purchased DiscoveRx KINOMEscan", "test": "KINOMEscan"}, "MLK2": {"molecular_target": "T38, MLK2 (Homo sapiens, UniProt Q02779)", "T38 construct": "purchased DiscoveRx KINOMEscan", "test": "KINOMEscan"}, "ARK5": {"molecular_target": "T39, ARK5 (Homo sapiens, UniProt O60285)", "T39 construct": "purchased DiscoveRx KINOMEscan", "test": "KINOMEscan"}, "[3]": {"molecular_target": "T40, JAK2(JH1domain-catalytic) (Homo sapiens, UniProt O60674)", "T40 construct": "JAK2(JH1domain-catalytic); purchased DiscoveRx KINOMEscan", "T40 sequence (O60674 849-1132 limits assumed)": "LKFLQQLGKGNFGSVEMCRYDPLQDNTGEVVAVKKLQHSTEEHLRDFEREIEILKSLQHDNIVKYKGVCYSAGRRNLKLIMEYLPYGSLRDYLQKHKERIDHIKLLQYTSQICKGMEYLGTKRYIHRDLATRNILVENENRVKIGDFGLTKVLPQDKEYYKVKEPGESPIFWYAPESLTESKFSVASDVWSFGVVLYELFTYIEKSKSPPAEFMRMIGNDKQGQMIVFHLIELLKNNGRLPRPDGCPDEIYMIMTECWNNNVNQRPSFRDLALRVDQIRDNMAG", "test": "KINOMEscan"}, "FAK": {"molecular_target": "T41, FAK (Homo sapiens, UniProt Q05397)", "T41 construct": "purchased DiscoveRx KINOMEscan", "test": "KINOMEscan"}, "FGFR4": {"molecular_target": "T42, FGFR4 (Homo sapiens, UniProt P22455)", "T42 construct": "purchased DiscoveRx KINOMEscan", "test": "KINOMEscan"}}, "data": [{"molecule": "CCN(C(=O)CO)[C@H]1CN(/C(=N\\C#N)Nc2cccc(OC(F)F)c2)N=C1c1ccc(Cl)c(Cl)c1", "note": "[(S)-4]", "values": [{"measurement": "remaining binding at 1 µM", "setting": "EGFR(G719C)", "value": 86, "unit": "%"}, {"measurement": "remaining binding at 1 µM", "setting": "ADCK4", "value": 81, "unit": "%"}, {"measurement": "remaining binding at 1 µM", "setting": "LIMK1", "value": 100, "unit": "%"}, {"measurement": "remaining binding at 1 µM", "setting": "PLK1", "value": 100, "unit": "%"}, {"measurement": "remaining activity at 1 µM", "setting": "PKNB(M.tuberculosis)", "value": 88, "unit": "%"}, {"measurement": "remaining binding at 1 µM", "setting": "MYO3B", "value": 96, "unit": "%"}, {"measurement": "remaining binding at 1 µM", "setting": "TTK", "value": 82, "unit": "%"}, {"measurement": "remaining binding at 1 µM", "setting": "PRKG2", "value": 84, "unit": "%"}, {"measurement": "remaining binding at 1 µM", "setting": "PRKD3", "value": 99, "unit": "%"}, {"measurement": "remaining binding at 1 µM", "setting": "KIT(D816H)", "value": 95, "unit": "%"}, {"measurement": "remaining binding at 1 µM", "setting": "TNIK", "value": 100, "unit": "%"}, {"measurement": "remaining binding at 1 µM", "setting": "PFPK5(P.falciparum)", "value": 100, "unit": "%"}, {"measurement": "remaining binding at 1 µM", "setting": "PFTK1", "value": 84, "unit": "%"}, {"measurement": "remaining binding at 1 µM", "setting": "BTK", "value": 79, "unit": "%"}, {"measurement": "remaining binding at 1 µM", "setting": "CAMK2D", "value": 96, "unit": "%"}, {"measurement": "remaining binding at 1 µM", "setting": "BMPR2", "value": 100, "unit": "%"}, {"measurement": "remaining binding at 1 µM", "setting": "PAK7", "value": 100, "unit": "%"}, {"measurement": "remaining binding at 1 µM", "setting": "DRAK1", "value": 100, "unit": "%"}, {"measurement": "remaining binding at 1 µM", "setting": "HUNK", "value": 94, "unit": "%"}, {"measurement": "remaining binding at 1 µM", "setting": "EGFR(T790M)", "value": 86, "unit": "%"}, {"measurement": "remaining binding at 1 µM", "setting": "KIT(V559D)", "value": 99, "unit": "%"}, {"measurement": "remaining binding at 1 µM", "setting": "[1]", "value": 98, "unit": "%"}, {"measurement": "remaining binding at 1 µM", "setting": "BUB1", "value": 100, "unit": "%"}, {"measurement": "remaining binding at 1 µM", "setting": "AKT1", "value": 84, "unit": "%"}, {"measurement": "remaining binding at 1 µM", "setting": "MARK3", "value": 69, "unit": "%"}, {"measurement": "remaining binding at 1 µM", "setting": "RET(M918T)", "value": 80, "unit": "%"}, {"measurement": "remaining binding at 1 µM", "setting": "PIK3CA(H1047Y)", "value": 92, "unit": "%"}, {"measurement": "remaining binding at 1 µM", "setting": "NEK5", "value": 85, "unit": "%"}, {"measurement": "remaining binding at 1 µM", "setting": "DLK", "value": 94, "unit": "%"}, {"measurement": "remaining binding at 1 µM", "setting": "ACVR1B", "value": 100, "unit": "%"}, {"measurement": "remaining binding at 1 µM", "setting": "EPHA3", "value": 100, "unit": "%"}, {"measurement": "remaining binding at 1 µM", "setting": "TESK1", "value": 94, "unit": "%"}, {"measurement": "remaining binding at 1 µM", "setting": "DCAMKL2", "value": 93, "unit": "%"}, {"measurement": "remaining binding at 1 µM", "setting": "PIK3CA(H1047L)", "value": 92, "unit": "%"}, {"measurement": "remaining binding at 1 µM", "setting": "KIT(V559D,T670I)", "value": 100, "unit": "%"}, {"measurement": "remaining binding at 1 µM", "setting": "PRKCH", "value": 80, "unit": "%"}, {"measurement": "remaining binding at 1 µM", "setting": "[2]", "value": 91, "unit": "%"}, {"measurement": "remaining binding at 1 µM", "setting": "MLK2", "value": 77, "unit": "%"}, {"measurement": "remaining binding at 1 µM", "setting": "ARK5", "value": 100, "unit": "%"}, {"measurement": "remaining binding at 1 µM", "setting": "[3]", "value": 100, "unit": "%"}, {"measurement": "remaining binding at 1 µM", "setting": "FAK", "value": 99, "unit": "%"}, {"measurement": "remaining binding at 1 µM", "setting": "FGFR4", "value": 71, "unit": "%"}]}]}
